According to ChEMBL document CHEMBL1201862, “PubChem BioAssay data set” (2004):
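All cell lines were grown in 96-well plates and treated with compound for 48 hours. The concentration for 50% growth inhibition is given as GI50.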 Active and inactive are the calls of the source. Rule as the data show it: active = GI50 up to about 1.1 µM and inactive = higher.

Experiments:
Test in all cases: growth of human tumour cells (NCI), 48 h
[1] = tested on: SF-295
[2] = tested on: UACC-62
[3] = tested on: SK-MEL-2
[4] = tested on: OVCAR-5
[5] = tested on: SK-MEL-5
[6] = tested on: HOP-92
[7] = tested on: SK-MEL-28
[8] = tested on: SNB-75
[9] = tested on: ACHN
[10] = tested on: HCC 2998
[11] = tested on: LOX IMVI
[12] = tested on: 786-0
[13] = tested on: CAKI-1
[14] = tested on: UO-31
[15] = tested on: Malme-3M
[16] = tested on: OVCAR-8
[17] = tested on: SN12C
[18] = tested on: NCI-H23
[19] = tested on: SF-268
[20] = tested on: M19-MEL
[21] = tested on: TK-10
[22] = tested on: UACC-257
[23] = tested on: EKVX
[24] = tested on: KM12
[25] = tested on: HCT-116
[26] = tested on: SF-539
[27] = tested on: NCI-H226
[28] = tested on: HOP-62
[29] = tested on: OVCAR-3
[30] = tested on: RXF 393
[31] = tested on: COLO 205
[32] = tested on: U-251
[33] = tested on: A498
[34] = tested on: RXF 631
[35] = tested on: SNB-19
[36] = tested on: KM-20L2
[37] = tested on: DMS-114
[38] = tested on: CCRF-CEM
[39] = tested on: RPMI-8226
[40] = tested on: XF498
[41] = tested on: IGROV-1
[42] = tested on: SK-OV-3
[43] = tested on: SNB-78
[44] = tested on: HCT-15
[45] = tested on: OVCAR-4
[46] = tested on: LXFL 529
[47] = tested on: M14
[48] = tested on: DLD-1
[49] = tested on: HT-29
[50] = tested on: NCI-H460
[51] = tested on: A549
[52] = tested on: DMS-273
[53] = tested on: HOP-18
[54] = tested on: SW-620
[55] = tested on: NCI-H522
[56] = tested on: HL-60
[57] = tested on: MOLT-4
[58] = tested on: SR
[59] = tested on: K562

In the case of `COC(=O)c1cc2c(c(C(=O)OC)c1O)C(=O)C=CC2=O`, the GI50 [1] is reported as 27 µM (inactive), the GI50 [2] is reported as > 9.1 µM (inactive) and the GI50 [3] is reported as > 9.1 µM (inactive). The GI50 [4] was > 40.4 µM (inactive), the GI50 [5] was 37.2 µM (inactive) and the GI50 [6] was 8.2 µM (inactive). The GI50 [7] was > 39.9 µM (inactive), the GI50 [8] was 9.95 µM (inactive) and the GI50 [9] was > 31.3 µM (inactive). For the same compound, the GI50 [10] was > 43.1 µM (inactive), the GI50 [11] was 36.4 µM (inactive) and the GI50 [12] was 35.7 µM (inactive). For the same compound, the GI50 [13] was > 9.1 µM (inactive), the GI50 [14] was > 42.9 µM (inactive) and the GI50 [15] was > 40.8 µM (inactive). The GI50 [16] was > 21.4 µM (inactive), the GI50 [17] was > 42.1 µM (inactive) and the GI50 [18] was > 31.6 µM (inactive). For the same compound, the GI50 [19] was > 40.6 µM (inactive), the GI50 [20] was > 43.8 µM (inactive) and the GI50 [21] was > 39.4 µM (inactive). For the same compound, the GI50 [22] was > 32.8 µM (inactive), the GI50 [23] was > 21.2 µM (inactive) and the GI50 [24] was > 43.5 µM (inactive). For the same compound, the GI50 [25] was > 9.1 µM (inactive), the GI50 [26] was > 41.6 µM (inactive) and the GI50 [27] was > 9.1 µM (inactive). For the same compound, the GI50 [28] was 30 µM (inactive), the GI50 [29] was > 41.2 µM (inactive) and the GI50 [30] was > 29.1 µM (inactive). For the same compound, the GI50 [31] was > 50.2 µM (inactive), the GI50 [32] was 40.7 µM (inactive) and the GI50 [33] was > 41.1 µM (inactive). For the same compound, the GI50 [34] was 34.8 µM (inactive), the GI50 [35] was > 42.7 µM (inactive) and the GI50 [36] was > 41.6 µM (inactive). The GI50 [37] was > 48.6 µM (inactive), the GI50 [38] was 1.63 µM (inactive) and the GI50 [39] was > 9.1 µM (inactive). The GI50 [40] was > 9.1 µM (inactive), the GI50 [41] was 24.1 µM (inactive) and the GI50 [42] was > 89.5 µM (inactive). The GI50 [43] was > 42.8 µM (inactive), the GI50 [44] was 21.6 µM and the GI50 [45] was > 38.8 µM (inactive). For the same compound, the GI50 [46] was 11.6 µM (inactive), the GI50 [47] was > 44.9 µM (inactive) and the GI50 [48] was > 21.5 µM (inactive). The GI50 [49] was > 9.1 µM (inactive), the GI50 [50] was > 50.1 µM (inactive) and the GI50 [51] was > 42.8 µM (inactive). For the same compound, the GI50 [52] was 34.1 µM (inactive) and the GI50 [53] was 4.88 µM (inactive).
In the case of `Cc1ccc(NC(=O)OCC(COc2ccc(Cl)cc2)OC(=O)Nc2ccc(C)cc2)cc1` (stereo unspecified), the GI50 [1] is reported as 23.5 µM (inactive), the GI50 [2] is reported as 19.1 µM (inactive) and the GI50 [54] is reported as 17.1 µM (inactive). For the same compound, the GI50 [3] was 15 µM (inactive), the GI50 [4] was 27.9 µM (inactive) and the GI50 [5] was 24.5 µM (inactive). For the same compound, the GI50 [6] was 11.1 µM (inactive), the GI50 [7] was 35.1 µM (inactive) and the GI50 [55] was 29.8 µM (inactive). For the same compound, the GI50 [8] was 14.5 µM (inactive), the GI50 [9] was 20.7 µM (inactive) and the GI50 [10] was 39 µM (inactive). For the same compound, the GI50 [11] was 21.2 µM (inactive), the GI50 [13] was 15.7 µM (inactive) and the GI50 [14] was 11.9 µM (inactive). The GI50 [15] was 19 µM (inactive), the GI50 [16] was 81.3 µM (inactive) and the GI50 [17] was 20.4 µM (inactive). For the same compound, the GI50 [18] was 25.9 µM (inactive), the GI50 [19] was 22.5 µM (inactive) and the GI50 [20] was 22.4 µM (inactive). The GI50 [21] was 12.4 µM (inactive), the GI50 [22] was 21.9 µM (inactive) and the GI50 [23] was 70.3 µM (inactive). The GI50 [24] was 23 µM (inactive), the GI50 [25] was 20.7 µM (inactive) and the GI50 [26] was 21.6 µM (inactive). For the same compound, the GI50 [56] was 0.938 µM (active), the GI50 [57] was 16.2 µM (inactive) and the GI50 [27] was 16.5 µM (inactive). The GI50 [28] was 26.6 µM (inactive), the GI50 [58] was > 100 µM (inactive) and the GI50 [29] was 14.6 µM (inactive). The GI50 [30] was 12.9 µM (inactive), the GI50 [59] was 9.27 µM (inactive) and the GI50 [31] was 39.6 µM (inactive). The GI50 [32] was 28.4 µM (inactive), the GI50 [33] was 13.2 µM (inactive) and the GI50 [34] was 11.5 µM (inactive). The GI50 [35] was 19.6 µM (inactive), the GI50 [36] was 36.7 µM (inactive) and the GI50 [37] was 17.3 µM (inactive). For the same compound, the GI50 [38] was 9.93 µM (inactive), the GI50 [39] was 9.77 µM (inactive) and the GI50 [40] was 26.4 µM (inactive). For the same compound, the GI50 [41] was 9.79 µM (inactive), the GI50 [42] was 58.6 µM (inactive) and the GI50 [43] was 23.2 µM (inactive). The GI50 [44] was 29.7 µM, the GI50 [45] was 13.7 µM (inactive) and the GI50 [46] was 23.4 µM (inactive). The GI50 [47] was 17.1 µM (inactive), the GI50 [48] was 30.5 µM (inactive) and the GI50 [49] was 15.2 µM (inactive). For the same compound, the GI50 [50] was 25.9 µM (inactive), the GI50 [51] was 13.7 µM (inactive) and the GI50 [52] was 15.8 µM (inactive). The GI50 [53] was > 100 µM (inactive).
